“Also recorded” adds a separate entry of the source.
Tests used:
c-Myc, Sox-2 and Oct4 = experiment: Western blot of key transcription factors; type: cell-based, human; conditions: nuclear extracts of CD133+ and bulk PPT2 cells
Procedure: (§1) Cells were lysed using Active Motif Nuclear Co-ip kit according to manufacturer's protocol. 20 μg of enriched nuclear and cytoplasmic extracts was subjected to electrophoresis in 10% polyacrylamide gel. The proteins were then transferred to a nitrocellulose membrane and developed with appropriate antibodies.

[1] = tested on: drug-resistant colon tumor xenografts; conditions: all surviving mice; cited from earlier work
[2] = tested on: Oct-4, Sox-2, Nanog, Lin-28 and c-Myc; experiment: Stem cell-specific PCR array on 3D spheroids induced by CD133high/CD44high cells; type: cell-based; conditions: single treatment with 0.01 μg/ml
Procedure: Stem cell-specific gene expression profiles were studied with the PCR Array assay (SABiosciences, CA) in accordance with the manufacturer's recommendations. Briefly, total RNA was isolated from different cell populations (cancer stem cells expressing high levels of the CD133 and CD44, or whole floating spheroids that are enriched with CSCs) using PARIS kit (Ambion). Up to 1 μg of total RNA was treated with DNase and cDNA was prepared using RT^2 First Strand kit. For each analysis, pairs of the test and control cDNA samples were mixed with RT^2 qPCR Master mix and distributed across the PCR array 96-well plates, each of which contained 84 stem cell-related probes and control housekeeping genes. After cycling with real-time PCR (Opticon MJ Research or ABI 7300, Applied Biosystems), obtained amplification data (fold-changes in Ct values of all the genes) was analyzed with SABiosciences software.
Since CSC-enriched CD 133^+ and CD44^+ cell populations are more resistant to conventional therapies than other more differentiated cells, the cytotoxic effects of SBT-1214 were tested against such cell populations in colon (Botchkina et al., 2010) and prostate (FIG. 5) cancers. […]

[3] = tested on: PPT2 and PC3MM2 cell lines; experiment: FACS analysis of CD133 expression after drug treatment; type: cell-based, human; conditions: 10 nM to 10 μM, 24 hours, concentration-dependent
Source text: To ensure more reliable isolation of CSCs, cells were labeled with one or several markers conjugated with different fluorescent dyes, including anti-human CD133/2-APC (clone 293C3; Miltenyi Biotec, CA, USA); CD166-PE (clone 105902; R&D Systems, MN, USA); CD44-FITC (clone F10-44-2), CD44-PE (clone F10-44-2; Invitrogen/Biosources, USA); CD44v6-FITC (clone 2F10; R&D Systems, USA), EpCAM-FITC (Biosource, CA, USA), Pan-Keratin (C11)-Alexa Fluor® 488 (Cell Signaling) and all the isotype controls (Chemicon). Antibodies were diluted in buffer containing 5% BSA, 1 mM EDTA and 15-20% blocking reagent (Miltenyi Biotec) to inhibit unspecific binding to non-target cells. After 15 min incubation at 4° C., stained cells were sorted and analyzed with multiparametric flow cytometer BD FACSAria (Becton Dickinson, CA). Alternatively, dissociated cells were centrifuged at 950 g for 5 min at 4° C., rinsed with sterile MACS buffer (Miltenyi Biotec, CA) and labeled with CD133 Abs directly or indirectly conjugated with ferromagnetic beads (Miltenyi Biotec, CA) as recommended by manufacturer.
(§2) The CSC-specific cytotoxic effects were studied in two different settings both of which are known to maintain/promote sternness phenotype: adherent to type I collagen cultures and 3D cultures of floating spheroids (Baretton, G. B. 1994; Miyoshi, Y. 2000; Koivisto, P. 1995). The CD133^high/CD44^high cells (1×10^3 cells/well) isolated either from PPT2 or PC3MM2 cell lines were seeded onto the type I collagen-coated 96-well plates, cultured in the MSCGM for 2 days, and the treatment was initiated upon 90% confluency. Paclitaxel, SBT-1214 and CMC2.24 were dissolved in sterile DMSO and then serially diluted in MSCGM. […] Cell death was analyzed on adherent type I collagen cell cultures with the MTT assay [MTT=3-(4,5-dimethylthiazol-2-yl)-2,5-diphenyltetrazolium bromide] as recommended by manufacturer (Invitrogen). […]

[4] = tested on: prostate CD133+ cells (PPT2 and PC3MM2); experiment: MTT cytotoxicity assay, results stated for prostate CD133+ cells without split by line; type: cell-based, human; conditions: 48-72 hours
Procedure: (§3) The CSC-specific cytotoxic effects were studied in two different settings both of which are known to maintain/promote sternness phenotype: adherent to type I collagen cultures and 3D cultures of floating spheroids (Baretton, G. B. 1994; Miyoshi, Y. 2000; Koivisto, P. 1995). The CD133^high/CD44^high cells (1×10^3 cells/well) isolated either from PPT2 or PC3MM2 cell lines were seeded onto the type I collagen-coated 96-well plates, cultured in the MSCGM for 2 days, and the treatment was initiated upon 90% confluency. Paclitaxel, SBT-1214 and CMC2.24 were dissolved in sterile DMSO and then serially diluted in MSCGM. For testing the SBT-1214/CMC2.24 combination efficacy, the regular MSCGM was replaced with treatment medium containing SBT-1214 or Ptx at selected concentration range (from 10 nM to 10 μM) with 30 μM CMC2.24. Treatment medium was removed 24, 48 or 72 hr later, followed by return to the MSCGM. Cell death was analyzed on adherent type I collagen cell cultures with the MTT assay [MTT=3-(4,5-dimethylthiazol-2-yl)-2,5-diphenyltetrazolium bromide] as recommended by manufacturer (Invitrogen). Spheroids were cultured and treated on ULA plates.
(§4) The dose-response cytotoxicity of SBT-1214, CMC2.24/and their combination was evaluated by standard MTT assay (all of the in vitro experiments were repeated at least three times and each measurement for the MMT assay was performed in 4 repeats). The dose-response points were plotted as a percentage of the untreated control, the absorbance of which was considered as 100%. Data were expressed as means±SD for each drug concentration. The in vivo responses to drug treatment were evaluated as changes in tumor volume of drug-treated versus untreated control xenografts induced by particular type of cells. Data were expressed as means±SD for control and drug treated tumors. The statistical significance of differences was determined using Student's t-test. The parameters used were the two-tailed distribution and the paired test. P<0.05 was considered statistically significant.

CD133+ PC3MM2 cells = experiment: MTT cytotoxicity assay, CD133+ PC3MM2 cells on type I collagen; type: cell-based, human; conditions: 72 hours, 10 nM-10 μM
Procedure: as §2
as §4, with “The in vivo responses to drug treatment were evaluated as changes in tumor volume of drug-treated versus untreated control xenografts induced by particular type of cells.” left out, “The parameters used were the two-tailed distribution and the paired test. P<0.05 was considered statistically significant.” left out

CD133+ PPT2 cells = type: cell-based, human
Procedure: as §3, §4

[5] = Systemic toxicity in tumor-bearing mice; type: in vivo, NOD/SCID mice
Procedure: (§5) Animals were handled according to protocols that have been approved by the Institutional Animal Care and Use committee of the Stony Brook University. The staff of veterinarians provided veterinary care. The SBT-1214 was administered intravenously (40, 20, 20, 20 mg/kg; weekly) to 6-weeks old NOD/SCID mice. Treatment was started 2-3 weeks after transplantation of the tumor cells, when tumor xenografts reached ˜100 mm^3. Systemic toxicity in NOD/SCID mice was closely monitored and evaluated by standard criteria (motor activity, morbidity, appetite, posture and appearance). One week after the last treatment, all residual tumors were harvested and analyzed histopathologically and for ex vivo clonogenic capacity. One part of each mouse tumor xenograft was snap-frozen in embedding matrix (Lipshaw) and kept at −80° C. before immunohistochemical analysis at standard conditions. […] Ability to induce the round colonies (holoclones) was also determined before and after drug treatment. Cells were counted and plated on 48-well plates at a final count of 300 cells per well. One week after initiation, the plates were inspected for colony growth and the number of colonies within each well was quantified by phase contrast microscopy. After drug treatment, one portion of cells which survived particular treatment regimen was placed at 3D and adherent culture conditions and analyzed. […]

PPT2-induced tumors = experiment: Residual tumors after treatment, viable cells and ex vivo colonies, PPT2; type: in vivo, NOD/SCID mice; conditions: 40, 20, 20, 20 mg/kg weekly, one week after last treatment
Procedure: as §5

p53 and p21 = experiment: Western blot of pro-apoptotic proteins; type: cell-based, human; conditions: CD133+ and bulk PPT2 cells, previously not expressed
Procedure: as §1

PC3MM2-induced tumors = experiment: Residual tumors after treatment, viable cells and ex vivo colonies, PC3MM2; type: in vivo, NOD/SCID mice; conditions: 40, 20, 20, 20 mg/kg weekly, one week after last treatment
Procedure: as §5

[6] = tested on: PPT2- and PC3MM2-induced tumors; experiment: Tumor xenografts induced by CD133+ cells, tumor size; type: in vivo, NOD/SCID mice
Procedure: All experiments involving the use of animals were carried out in strict accordance with the recommendations in the Guide for the Care and Use of Laboratory Animals of the National Institutes of Health, via a research protocol that was approved by Stony Brook University Institutional Animal Care and Use Committee (IACUC). NOD/SCID mice (Charles River Laboratories International, Inc., MA) were maintained under defined conditions at SBU animal facility. After sufficient propagation, CD133^+ cells were resuspended in 1:1 MSCGM/Matrigel and injected to the flanks of 6 weeks old NOD/SCID mice (3,000 cells per mice; subcutaneously). Tumor development was monitored starting from the second week. The primary tumor sizes were measured with a caliper on a weekly basis and approximate tumor weights determined using the formula 0.5ab^2, where b is the smaller of the two perpendicular diameters. All mice were terminated after fourth week of treatment, if the tumor measured ˜2 cm, or at the first sign of suffering.
Animals were handled according to protocols that have been approved by the Institutional Animal Care and Use committee of the Stony Brook University. […] Systemic toxicity in NOD/SCID mice was closely monitored and evaluated by standard criteria (motor activity, morbidity, appetite, posture and appearance). […] Cells were counted and plated on 48-well plates at a final count of 300 cells per well. […]

[7] = tested on: PPT2 and PC3MM2 floating spheroids; experiment: Sphere formation assay after drug treatment; type: cell-based, human; conditions: 1 μM, 24 hours
Procedure: In order to obtain prostate cancer spheroids, MACS-CD133 and MACS-CD44 (Miltenyi Biotec, CA) or FACS sorted CD133^high/CD44^high cells were seeded at low numbers on ULA plates (1,000 cells per 6-well plate or 5-10,000 cells per 75 mm flasks) in MSCGM or SPCM. For evaluation of the clonogenic/sphere-forming capacity, cells were counted with Cellometer Auto T4 (Nexcelom Bioscience LLC, MA), resuspended in 1:4 type I collagen/SPCM or 1:4 Matrigel/MSGM and known cell numbers were plated on ULA plates. One week after initiation plates were inspected for floating sphere growth and compact well-shaped spheroids were counted. Spheroids were serially passaged by gentle dissociation and mixing with a new Matrigel/MSGM or type I collagen/SPCM, or reseeded on 48-well plates for final count of 5-10 spheres per well for further propagation and analysis.

CD133hi cells = experiment: Number of CD133hi cells after taxol, stemness-promoting cultures (FIG. 1); type: cell-based
Procedure: FIG. 1: The standard anti-cancer drug Taxol increases the ratios (shown by FACS analyses of cells with high expression of CD133) and actual number of CSCs (shown at right graph). CSC-enriched cell populations were cultured and treated in vitro under stemness-promoting condition, i.e. adherent to type I collagen (upper left panels) and as floating 3D spheroids (low left panels) in serum-free stem cell medium (MSCBM, Lonza).
Before any assays, particular cells were isolated using immunomagnetic and FACS cell sorting, characterized with FACS analysis and cultured under the stemness-promoting conditions (repeated cell sorting; serum-free stem cell medium; Lonza; low cell density; type I collagen-coated surfaces; non-adherent culturing on ultra-low adherent plates; Corning).

For `CC(=O)O[C@@]12CO[C@@H]1C[C@H](O)[C@@]1(C)C(=O)[C@H](OC(=O)C3CC3)C3=C(C)[C@@H](OC(=O)[C@H](O)[C@H](C=C(C)C)NC(=O)OC(C)(C)C)C[C@@](O)([C@@H](OC(=O)c4ccccc4)[C@H]21)C3(C)C` [SBT-1214], the “c-Myc and Sox2 expression” value (c-Myc, Sox-2 and Oct4) is given as “moderate down-regulation”, the tumor regression [1] is given as “complete regression” and the “expression of key regulators of pluripotency” value [2] is given as “significantly inhibited”. The “ratios of cells with highest expression of CD133” value [3] was “increased the ratios”, the “CD133+ cells killed” value ([4]; 10 nM to 10 μM, stated as up to) was “up to 60%” and the cell death (CD133+ PC3MM2 cells; stated as up to) was “up to 60%”. For the same compound, the “cytotoxicity at lower concentrations compared to 10 μM” value (CD133+ PPT2 cells; 100 nM-1 μM versus 10 μM, 48-72 hours) was “higher cytotoxicity”, the cell death (CD133+ PPT2 cells; 72 hours, 10 nM-10 μM, stated as up to) was “up to 65%” and the systemic toxicity ([5]; 40, 20, 20, 20 mg/kg weekly) was “much lower systemic toxicity”. For the same compound, the systemic toxicity ([5]; 40, 40, 40 mg/kg weekly) was “all mice expressed common signs of systemic toxicity”, the “residual tumors without viable cells and without colonies in culture” value (PPT2-induced tumors) was “Four of six” and the “expression of p21 and p53” value (p53 and p21) was “induced expression”. The “residual tumors without viable cells and without colonies in culture” value (PC3MM2-induced tumors) was “three of six”, the tumor size ([6]; 40, 20, 20, 20 mg/kg weekly i.v.) was “more significant tumor regression; also recorded: dramatic reduction in tumor size” and the tumor size ([6]; 40, 40, 40 mg/kg weekly i.v., by the third treatment) was “dramatically shrunk”. The “ability to induce secondary 3D spheroids or collagen-adherent colonies” value [7] was “lost their ability to induce both secondary 3D spheroids”.

For `CC(=O)O[C@H]1C(=O)[C@@]2(C)[C@H]([C@H](OC(=O)c3ccccc3)[C@]3(O)C[C@H](OC(=O)[C@H](O)[C@@H](NC(=O)c4ccccc4)c4ccccc4)C(C)=C1C3(C)C)[C@]1(OC(C)=O)CO[C@@H]1C[C@@H]2O` [Paclitaxel], the “ratios of cells with highest expression of CD133” value [3] was “increased the ratios”, the cell death ([4]; 10 μM) was “about 40%” and the “proliferation of the tumorigenic prostate cancer cells” value (CD133+ PC3MM2 cells) was “did not suppress proliferation”. For the same compound, the “proliferation of the tumorigenic prostate cancer cells” value (CD133+ PPT2 cells; 72 hours, 10 nM-10 μM) was “did not suppress proliferation”, the “number of CD133hi cells after treatment” value (CD133hi cells; 3D spheroids) was 149% and the “number of CD133hi cells after treatment” value (CD133hi cells; type I collagen cultures) was 160%.

Reference: US9675576B2, “Polyenolic zinc-binding agents (pezbins) actively promote inactivation of cancer stem cells and potentiate cytotoxic anti-tumor drug substances” (The Research Foundation for The State University of New York, priority 2012, dated 2017)
